From patent publication US9056104B2, “Dynamic inhibitors of heat shock protein 90” (THE UNIVERSITY OF KANSAS, priority 2011, dated 2015)
Where two headings read alike, the source gives them in different places.

Assays:
[1] = system: MCF-7 (estrogen receptor positive breast cancer cells); test: Anti-proliferative activity against MCF-7 cells; type: cell-based; conditions: mean ± SD
Description: (§1) Once synthesized, the library of coumermycin A1 analogs containing the olefinic and saturated linkers, were evaluated for anti-proliferative activity against SKBr3 (estrogen receptor negative, Her2 over-expressing breast cancer cells), MCF-7 (estrogen receptor positive breast cancer cells), A549 (human lung adenocarcinoma epithelial), HT29 (Human colon adenocarcinoma grade II), and PC3mm2 (androgen receptor insensitive prostate cancer) cell lines. […] As shown, X is at the 6 position and Y is at the 8 position.

[2] = system: SKBr3 (estrogen receptor negative, Her2 over-expressing breast cancer cells); test: Anti-proliferative activity against SKBr3 cells; type: cell-based; conditions: for IC50: mean ± SD
Description: as §1

[3] = system: HT29 (Human colon adenocarcinoma grade II); test: Anti-proliferative activity against HT29 cells; type: cell-based
Description: as §1, with “lines. The activities produced provide insight into the optimal distance between binding sites and provide rationale for subsequent analog design.” for “lines.”

[4] = system: A549 (human lung adenocarcinoma epithelial); test: Anti-proliferative activity against A549 cells; type: cell-based
Description: as §1, with “lines. The activities produced provide insight into the optimal distance between binding sites and provide rationale for subsequent analog design.” for “lines.”

[5] = system: HSP90-dependent client proteins (Her-2, Raf, Akt); test: Western blot analyses of HSP90 client protein degradation in MCF-7 breast cancer cells; type: cell-based; conditions: MCF-7 lysates, 24 hour treatment, 5x and 1/2 of antiproliferative IC50; actin control
Description: Since actin is not dependent on HSP90 for its maturation, actin levels should remain constant after treatment with an HSP90 inhibitor and is therefore used as a control. […] L represents a concentration ½ of the anti-proliferative IC50 value while H represents a concentration 5 times greater than the anti-proliferative IC50 value. GDA (500 nM) represents a positive control, while DMSO (0), vehicle, serves as the negative control. […]

[6] = system: PC3mm2 (androgen receptor insensitive prostate cancer); test: Anti-proliferative activity against PC3mm2 cells; type: cell-based
Description: as §1, with “lines. The activities produced provide insight into the optimal distance between binding sites and provide rationale for subsequent analog design.” for “lines.”

[7] = system: SKBr3, MCF-7, A549, HT29 and PC3mm2 cell lines; test: Anti-proliferative activity, cell lines not specified; type: cell-based; conditions: versus Compounds 65-70
Description: as §1, with “lines. The activities produced provide insight into the optimal distance between binding sites and provide rationale for subsequent analog design.” for “lines.”

cancer cells = conditions: cited from earlier work; for IC50: previously found, background, read-out: IC50 against cancer cells (anti-proliferative activity)
[8] = Table 2, read-out: Anti-Proliferation Activities of non-Noviosylated Olefin Dimers, MCF7
[9] = Table 2, read-out: Anti-Proliferation Activities of non-Noviosylated Olefin Dimers, SKBr3
[10] = Table 2, read-out: Anti-Proliferation Activities of non-Noviosylated Olefin Dimers, A549
[11] = Table 2, read-out: Anti-Proliferation Activities of non-Noviosylated Olefin Dimers, PC3mm2
[12] = Table 3, read-out: Anti-Proliferation Activities of Saturated Linker Dimers, MCF-7
[13] = Table 3, read-out: Anti-Proliferation Activities of Saturated Linker Dimers, SKBr3
[14] = Table 3, read-out: Anti-Proliferation Activities of Saturated Linker Dimers, HT29
[15] = Table 3, read-out: Anti-Proliferation Activities of Saturated Linker Dimers, A549
[16] = Table 3, read-out: Anti-Proliferation Activities of Saturated Linker Dimers, PC3mm2
[17] = Table 4, read-out: Anti-Proliferation Activities of Biaryl Dimers, MCF-7
[18] = Table 4, read-out: Anti-Proliferation Activities of Biaryl Dimers, SKBr3

Q: For `Cc1c(OC2CCN(C)CC2)ccc2cc(NC(=O)CCCC/C=C/CCCCC(=O)Nc3cc4ccc(OC5CCN(C)CC5)c(C)c4oc3=O)c(=O)oc12` [Compound 35], which IC50 [1, 8] is on record?
A: 0.73 ± 0.1 µM

Q: What about the IC50 [2, 9] of the same compound?
A: 0.51 ± 0.06 µM

Q: For `Cc1c(OCCCN(C)C)ccc2cc(NC(=O)C/C=C/CC(=O)Nc3cc4ccc(OCCCN(C)C)c(C)c4oc3=O)c(=O)oc12` [Compound 36], which IC50 [1, 8] is on record?
A: 0.84 µM

Q: And the IC50 ([3]; Table 2, read-out: Anti-Proliferation Activities of non-Noviosylated Olefin Dimers, HT29)?
A: 12.2 µM

Q: What about the IC50 [4, 10] of the same compound?
A: 19.4 µM

Q: And the IC50 [2, 9]?
A: 0.46 ± 0.02 µM

Q: And the “degradation of HSP90 client proteins (Her-2, Raf, Akt), Western blot” value [5]?
A: no activity against HSP90 client proteins

Q: And the IC50 [6, 11]?
A: 15.2 µM

Q: For `Cc1c(OC2CCN(C)CC2)ccc2cc(NC(=O)CC/C=C\CCC(=O)Nc3cc4ccc(OC5CCN(C)CC5)c(C)c4oc3=O)c(=O)oc12` [Compound 38], which IC50 [1, 8] is on record?
A: 49.9 ± 2.6 µM

Q: And the IC50 [4, 10]?
A: 77.6 µM

Q: What about the IC50 [2, 9] of the same compound?
A: > 100 µM

Q: And the IC50 [6, 11]?
A: 32.9 µM

Q: What does the source list for `Cc1c(OC2CCN(C)CC2)ccc2cc(NC(=O)CCCCC(=O)Nc3cc4ccc(OC5CCN(C)CC5)c(C)c4oc3=O)c(=O)oc12` [Compound 42]?
A: IC50 [1, 12]: 2.46 ± 0.4 µM; IC50 [2, 13]: 1.26 ± 0.2 µM

Q: Which IC50 [1, 12] does the source give for `Cc1c(OC2CCN(C)CC2)ccc2cc(NC(=O)CCCCCCC(=O)Nc3cc4ccc(OC5CCN(C)CC5)c(C)c4oc3=O)c(=O)oc12` [Compound 43] here?
A: 2.82 ± 0.3 µM

Q: And the IC50 [3, 14]?
A: 26.3 µM

Q: And the IC50 [4, 15]?
A: 30.4 µM

Q: And the IC50 [2, 13]?
A: 1.19 ± 0.3 µM

Q: And the IC50 [6, 16]?
A: 13.8 µM

Q: For `Cc1c(OC2CCN(C)CC2)ccc2cc(NC(=O)CCCCCCCCC(=O)Nc3cc4ccc(OC5CCN(C)CC5)c(C)c4oc3=O)c(=O)oc12` [Compound 44], which IC50 [1, 12] is on record?
A: 3.68 ± 0.4 µM

Q: What about the IC50 [3, 14] of the same compound?
A: 3.9 µM

Q: What about the IC50 [4, 15] of the same compound?
A: 13.2 µM

Q: What about the IC50 [2, 13] of the same compound?
A: 2.84 ± 0.1 µM

Q: And the IC50 [6, 16]?
A: 10.2 µM

Q: For `COC1C(O)C(O)C(Oc2ccc3cc(NC(=O)c4cccc(-c5cccc(C(=O)Nc6cc7ccc(OC8OC(C)(C)C(OC)C(O)C8O)c(C)c7oc6=O)c5)c4)c(=O)oc3c2C)OC1(C)C` (stereo not drawn) [Compound 65], which IC50 [1, 17] is on record?
A: 1.26 ± 0.17 µM

Q: What about the IC50 [2, 18] of the same compound?
A: 0.86 ± 0.14 µM

Q: What does the source list for `COc1cc(C(=O)Nc2cc3ccc(OC4OC(C)(C)C(OC)C(O)C4O)c(C)c3oc2=O)cc(-c2cc(C(=O)Nc3cc4ccc(OC5OC(C)(C)C(OC)C(O)C5O)c(C)c4oc3=O)ccc2OC)c1` (stereo not drawn) [Compound 67]?
A: IC50 [1, 17]: 38 ± 1.5 µM; IC50 [2, 18]: 28.5 ± 4.4 µM

Q: Which IC50 [1, 17] does the source give for `COc1cc(C(=O)Nc2cc3ccc(OC4OC(C)(C)C(OC)C(O)C4O)c(C)c3oc2=O)cc(-c2cc(OC)cc(C(=O)Nc3cc4ccc(OC5OC(C)(C)C(OC)C(O)C5O)c(C)c4oc3=O)c2)c1` (stereo not drawn) [Compound 68] here?
A: 1.85 ± 0.52 µM

Q: What about the IC50 ([3]; Table 4, read-out: Anti-Proliferation Activities of Biaryl Dimers, HT29) of the same compound?
A: 11.7 µM

Q: What about the IC50 ([4]; Table 4, read-out: Anti-Proliferation Activities of Biaryl Dimers, A549) of the same compound?
A: 28.9 µM

Q: What about the IC50 [2, 18] of the same compound?
A: 1.95 ± 0.4 µM

Q: What about the IC50 ([6]; Table 4, read-out: Anti-Proliferation Activities of Biaryl Dimers, PC3mm2) of the same compound?
A: 12.5 µM

Q: Which IC50 [1, 17] does the source give for `COc1ccc(C(=O)Nc2cc3cc(OC)c(OC4OC(C)(C)C(OC)C(O)C4O)c(C)c3oc2=O)cc1-c1cc(C(=O)Nc2cc3cc(OC)c(OC4OC(C)(C)C(OC)C(O)C4O)c(C)c3oc2=O)ccc1OC` (stereo not drawn) [Compound 69] here?
A: 0.72 ± 0.21 µM

Q: And the IC50 [2, 18]?
A: 0.11 ± 0.05 µM

Q: And the “fold more active on SkBr3 cell lines than corresponding 8-Me and 8-OMe coumarin analogs (Compounds 66 and 68)” value ([2]; versus Compounds 66 and 68)?
A: 7-8 fold

Q: For `COc1ccc(C(=O)Nc2cc3ccc(OC(C)=O)c(C)c3oc2=O)cc1-c1cc(C(=O)Nc2cc3ccc(OC(C)=O)c(C)c3oc2=O)ccc1OC` [Compound 73], which IC50 ([1]; Table 5, read-out: Anti-Proliferation Activities Non-Noviosylated Biaryl Dimers, MCF-7) is on record?
A: > 100 µM

Q: And the IC50 ([2]; Table 5, read-out: Anti-Proliferation Activities Non-Noviosylated Biaryl Dimers, SKBr3)?
A: 11.8 ± 0.8 µM

Q: And the “fold less active than the corresponding noviosylated coumarin-containing analogs (Compounds 65-70)” value [7]?
A: ~10 fold

Q: What does the source list for `CO[C@H]1[C@H](OC(=O)c2ccc(C)[nH]2)[C@H](O)[C@@H](Oc2ccc3c(O)c(NC(=O)c4c[nH]c(C(=O)Nc5c(O)c6ccc(O[C@H]7OC(C)(C)[C@@H](OC)[C@H](OC(=O)c8ccc(C)[nH]8)[C@@H]7O)c(C)c6oc5=O)c4C)c(=O)oc3c2C)OC1(C)C` [coumermycin A1]?
A: IC50 (cancer cells): 70 µM; fold increase in anti-proliferative activity over novobiocin (cancer cells; relative to novobiocin): 10 fold

Q: For `CO[C@@H]1[C@@H](OC(N)=O)[C@@H](O)[C@H](Oc2ccc3c(O)c(NC(=O)c4ccc(O)c(CC=C(C)C)c4)c(=O)oc3c2C)OC1(C)C` [novobiocin], which IC50 (cancer cells) is on record?
A: ~700 µM
